# In ChEMBL document CHEMBL1134784, “Synthesis and screening for antiacetylcholinesterase activity of (1-benzyl-4-oxopiperidin-3-ylidene)methylindoles and -pyrroles related to donepezil” (J Med Chem, 2001):
# Target: Acetylcholinesterase (Homo sapiens, UniProt P22303)
# Sequence (P22303 whole entry): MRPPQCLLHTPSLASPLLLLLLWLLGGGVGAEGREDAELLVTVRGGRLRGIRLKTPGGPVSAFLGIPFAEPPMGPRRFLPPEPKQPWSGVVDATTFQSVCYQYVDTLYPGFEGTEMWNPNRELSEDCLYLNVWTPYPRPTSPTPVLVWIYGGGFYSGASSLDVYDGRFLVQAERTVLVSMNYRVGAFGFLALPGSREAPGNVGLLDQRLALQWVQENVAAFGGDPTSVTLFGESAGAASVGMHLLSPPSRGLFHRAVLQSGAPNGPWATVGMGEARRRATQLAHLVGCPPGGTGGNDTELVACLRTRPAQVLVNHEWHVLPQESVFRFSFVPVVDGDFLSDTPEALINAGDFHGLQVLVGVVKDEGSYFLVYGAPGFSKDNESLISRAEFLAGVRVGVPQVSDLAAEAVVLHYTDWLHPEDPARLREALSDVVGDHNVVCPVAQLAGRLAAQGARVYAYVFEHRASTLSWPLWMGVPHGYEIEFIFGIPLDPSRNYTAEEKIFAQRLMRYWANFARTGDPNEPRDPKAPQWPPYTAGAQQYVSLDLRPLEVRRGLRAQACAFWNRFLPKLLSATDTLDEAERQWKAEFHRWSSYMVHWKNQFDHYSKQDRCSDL
# Description: Inhibitory concentration required against acetylcholinesterase activity
row,SMILES,IC50 [µM]
1,O=C1CCN(Cc2ccccc2)C/C1=C\c1ccc[nH]1,11
2,N#Cc1ccc(C(=O)n2cc(/C=C3\CN(Cc4ccccc4)CCC3=O)c3ccccc32)cc1,20
3,O=C1CCN(Cc2ccccc2)C/C1=C\c1cc[nH]c1,6
4,O=C1CCN(Cc2ccccc2)C/C1=C\c1c[nH]c2ccc(OCc3ccccc3)cc12,25
5,O=C1CCN(Cc2ccccc2)C/C1=C\c1cn(C(=O)c2ccccc2)c2ccccc12,70
6,CC(C)(C)OC(=O)n1cc(/C=C2\CN(Cc3ccccc3)CCC2=O)c2ccccc21,30
7,O=C1CCN(Cc2ccccc2)C/C1=C\c1ccn(C(=O)c2ccccc2)c1,30
8,O=C1CCN(Cc2ccccc2)C/C1=C\c1cccn1C(=O)c1ccccc1,30
9,O=C1CCN(Cc2ccccc2)C/C1=C\c1cn(Cc2ccccc2)c2ccccc12,> 100
10,O=C1CCN(Cc2ccccc2)C/C1=C\c1c[nH]c2ccccc12,8
11,O=C1CCN(Cc2ccccc2)C/C1=C\c1cn(C(=O)c2ccc([N+](=O)[O-])cc2)c2ccccc12,50
12,CC(=O)n1cc(/C=C2\CN(Cc3ccccc3)CCC2=O)c2ccccc21,11
13,O=C1/C(=C/c2ccc[nH]2)CN(Cc2ccccc2)C/C1=C\c1ccc[nH]1,18
14,COc1ccc(C(=O)n2cc(/C=C3\CN(Cc4ccccc4)CCC3=O)c3ccccc32)cc1,70
15,O=C1CCN(Cc2ccccc2)C/C1=C\c1cn(C(=O)c2ccc(F)cc2)c2ccccc12,60
16,O=C1CCN(Cc2ccccc2)C/C1=C\c1cn(C(=O)c2ccc(Cl)cc2)c2ccccc12,50
17,COc1ccc2[nH]cc(/C=C3\CN(Cc4ccccc4)CCC3=O)c2c1,6
18,O=C1/C(=C/c2cc[nH]c2)CN(Cc2ccccc2)C/C1=C\c1cc[nH]c1,6
19,Cc1[nH]c(C)c(/C=C2\CN(Cc3ccccc3)CCC2=O)c1C=O,30
20,COc1ccc2c(c1)c(/C=C1\CN(Cc3ccccc3)CCC1=O)cn2C(=O)c1ccccc1,80
